Data on seven compounds can be found in ChEMBL document CHEMBL1781926, “Synthesis of 1-naphtylpiperazine derivatives as serotoninergic ligands and their evaluation as antiproliferative agents” (Eur J Med Chem, 2011).

Test [1] concerns the target T1, Adrenergic receptor alpha-2 (Rattus norvegicus, UniProt P22086+P19328+P22909).
T1 sequence (P22086 whole entry): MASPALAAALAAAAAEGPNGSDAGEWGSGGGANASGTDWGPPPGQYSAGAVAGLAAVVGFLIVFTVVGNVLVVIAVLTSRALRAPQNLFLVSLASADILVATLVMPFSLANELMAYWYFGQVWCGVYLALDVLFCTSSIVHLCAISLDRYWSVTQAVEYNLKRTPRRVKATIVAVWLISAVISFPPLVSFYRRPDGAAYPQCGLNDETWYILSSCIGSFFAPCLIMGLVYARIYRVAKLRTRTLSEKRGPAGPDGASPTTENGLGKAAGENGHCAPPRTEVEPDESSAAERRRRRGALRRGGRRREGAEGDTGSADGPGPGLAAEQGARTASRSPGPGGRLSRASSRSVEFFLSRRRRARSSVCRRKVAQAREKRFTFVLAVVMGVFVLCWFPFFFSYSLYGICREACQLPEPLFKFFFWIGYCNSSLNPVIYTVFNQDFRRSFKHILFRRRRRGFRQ
T1 sequence (P19328 whole entry): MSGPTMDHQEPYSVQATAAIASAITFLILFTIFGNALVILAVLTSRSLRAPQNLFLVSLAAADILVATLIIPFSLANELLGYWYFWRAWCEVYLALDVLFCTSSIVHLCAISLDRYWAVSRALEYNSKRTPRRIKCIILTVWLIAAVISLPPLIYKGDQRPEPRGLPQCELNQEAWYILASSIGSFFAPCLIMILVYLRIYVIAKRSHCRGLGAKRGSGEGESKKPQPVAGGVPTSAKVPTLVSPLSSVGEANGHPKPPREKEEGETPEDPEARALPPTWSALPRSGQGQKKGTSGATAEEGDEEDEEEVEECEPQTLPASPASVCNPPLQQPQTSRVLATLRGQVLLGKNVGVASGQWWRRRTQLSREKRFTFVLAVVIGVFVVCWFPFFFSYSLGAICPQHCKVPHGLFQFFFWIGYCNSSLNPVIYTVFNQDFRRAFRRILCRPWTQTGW
T1 sequence (P22909 whole entry): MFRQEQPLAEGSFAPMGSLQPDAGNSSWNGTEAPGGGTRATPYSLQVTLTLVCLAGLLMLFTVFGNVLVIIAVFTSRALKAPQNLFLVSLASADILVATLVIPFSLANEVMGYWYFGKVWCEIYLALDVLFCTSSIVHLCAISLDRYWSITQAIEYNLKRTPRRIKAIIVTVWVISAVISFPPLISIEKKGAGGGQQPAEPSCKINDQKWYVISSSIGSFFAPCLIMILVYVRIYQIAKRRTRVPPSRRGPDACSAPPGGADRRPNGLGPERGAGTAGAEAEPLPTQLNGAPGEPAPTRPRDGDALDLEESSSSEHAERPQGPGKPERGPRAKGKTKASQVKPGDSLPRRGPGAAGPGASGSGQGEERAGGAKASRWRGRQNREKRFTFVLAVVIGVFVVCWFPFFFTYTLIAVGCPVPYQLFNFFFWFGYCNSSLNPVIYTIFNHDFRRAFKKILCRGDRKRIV
Briefly: Displacement [3H]yohimbine from alpha 2 adrenergic receptor in rat brain cortex homogenates after 30 mins by liquid scintillation counting. The format is tissue-based.

The target in the next test is D(1A) dopamine receptor (Rattus norvegicus, UniProt P18901). Briefly: Displacement of [3H]SCH 23390 from dopamine D1 receptor in rat corpora striatum homogenates after 15 mins by liquid scintillation counting.
Sequence of D(1A) dopamine receptor (P18901 whole entry): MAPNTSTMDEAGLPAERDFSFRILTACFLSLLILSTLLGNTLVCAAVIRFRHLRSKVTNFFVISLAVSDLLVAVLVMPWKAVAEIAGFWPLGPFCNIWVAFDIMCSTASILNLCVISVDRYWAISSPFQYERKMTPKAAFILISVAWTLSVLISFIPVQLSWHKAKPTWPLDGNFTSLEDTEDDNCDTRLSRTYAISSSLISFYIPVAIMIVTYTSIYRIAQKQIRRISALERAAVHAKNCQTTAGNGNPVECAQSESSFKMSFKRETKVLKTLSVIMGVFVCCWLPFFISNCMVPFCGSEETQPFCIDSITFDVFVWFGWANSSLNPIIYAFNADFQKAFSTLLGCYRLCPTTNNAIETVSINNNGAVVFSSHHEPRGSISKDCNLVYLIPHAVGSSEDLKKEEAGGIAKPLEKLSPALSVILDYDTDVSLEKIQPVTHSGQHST
Another test concerns the target D(2) dopamine receptor (Rattus norvegicus, UniProt P61169). Nature of the test: Displacement of [3H]spiperone from dopamine D2 receptor in rat corpora striatum homogenates after 15 mins by liquid scintillation counting. Background: Loss of bound radioactivity is the signal in a displacement assay; it reports binding, not function.
The target in test [2] is 5-hydroxytryptamine receptor 2A (Rattus norvegicus, UniProt P14842). Briefly: Displacement of [3H]Ketanserin from 5HT2A receptor in Sprague-Dawley rat frontal cortical homogenates after 15 mins.
Sequence of 5-hydroxytryptamine receptor 2A (P14842 whole entry): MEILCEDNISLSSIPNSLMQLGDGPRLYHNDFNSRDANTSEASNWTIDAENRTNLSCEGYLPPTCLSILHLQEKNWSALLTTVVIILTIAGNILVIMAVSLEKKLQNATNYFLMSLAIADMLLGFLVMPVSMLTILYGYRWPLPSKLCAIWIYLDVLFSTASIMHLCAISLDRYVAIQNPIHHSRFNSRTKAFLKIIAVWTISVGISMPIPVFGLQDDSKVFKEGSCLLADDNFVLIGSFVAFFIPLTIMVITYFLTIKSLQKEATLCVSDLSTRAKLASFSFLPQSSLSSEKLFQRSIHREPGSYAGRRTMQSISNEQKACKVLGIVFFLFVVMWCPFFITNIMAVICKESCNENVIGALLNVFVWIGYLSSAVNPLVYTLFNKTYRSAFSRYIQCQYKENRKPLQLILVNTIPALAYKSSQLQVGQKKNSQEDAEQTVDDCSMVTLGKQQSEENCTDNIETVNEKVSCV
Test [3] has as its target T2, 5-hydroxytryptamine receptor 2C (Rattus norvegicus, UniProt P08909).
T2 sequence (P08909 whole entry): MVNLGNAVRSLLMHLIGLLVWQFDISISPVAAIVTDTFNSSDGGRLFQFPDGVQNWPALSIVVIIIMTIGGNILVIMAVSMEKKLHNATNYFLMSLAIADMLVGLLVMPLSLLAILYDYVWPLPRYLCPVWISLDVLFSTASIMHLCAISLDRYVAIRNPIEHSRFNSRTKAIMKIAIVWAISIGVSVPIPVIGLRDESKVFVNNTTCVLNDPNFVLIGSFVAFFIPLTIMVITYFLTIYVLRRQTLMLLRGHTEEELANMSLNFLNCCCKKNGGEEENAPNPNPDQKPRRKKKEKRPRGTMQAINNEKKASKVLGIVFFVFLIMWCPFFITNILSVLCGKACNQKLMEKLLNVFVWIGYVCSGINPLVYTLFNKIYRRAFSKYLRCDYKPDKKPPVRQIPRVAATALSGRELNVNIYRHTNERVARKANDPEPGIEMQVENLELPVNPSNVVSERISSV
Briefly: Displacement of [3H]mesulergine from 5HT2C receptor in Sprague-Dawley rat frontal cortical homogenates after 15 mins.

Test [4] has as its system PC-3. Nature of the test: Antiproliferative activity against human PC3 cells assessed as growth inhibition after 96 hrs by SRB assay. The format is functional, cell-based. As to conditions: for IC50: PC-3, 96 h. (Sulforhodamine B stains cellular protein and so reports cell mass.)
Test [5] relates to PC-3. Nature of the test: Cell cycle arrest in human PC3 cells assessed as accumulation at G1 phase at 15 uM after 72 hrs using propidium iodide staining by flow cytometry (reference value: 42.19 %). The format is functional. (In flow cytometry, cells or beads pass a laser one at a time.)
Test [6] concerns PC-3. Briefly: Cell cycle arrest in human PC3 cells assessed as accumulation at G2 phase at 15 uM after 72 hrs using propidium iodide staining by flow cytometry (reference value: 20.18 %). The format is functional.
In test [7] the test system is PC-3. Briefly: Induction of apoptosis in human PC3 cells at 15 uM after 72 hrs using propidium iodide staining by flow cytometry (reference value: 1.79 %). The format is functional.
The test system of test [8] is PC-3. Briefly: Induction of apoptosis human PC3 cells assessed as externalization of phosphatidylserine on the outer layer of plasma membrane at 15 uM after 24 to 48 hrs using Annexin-V-FITC staining by flow cytometry. The format is functional, cell-based.
Test [9] has as its system PC-3. Nature of the test: Cell cycle arrest in human PC3 cells assessed as accumulation at G1 phase at 15 uM after 24 hrs using propidium iodide staining by flow cytometry (reference value: 46.97 %). The format is functional.
Test [10] concerns PC-3. Nature of the test: Cell cycle arrest in human PC3 cells assessed as accumulation at G2 phase at 15 uM after 24 hrs using propidium iodide staining by flow cytometry (reference value: 18.19 %). The format is functional.
Test [11] concerns PC-3. Nature of the test: Cell cycle arrest in human PC3 cells assessed as accumulation at S phase at 15 uM after 24 hrs using propidium iodide staining by flow cytometry (reference value: 34.84 %). The format is functional.
Test [12] deals with PC-3. Briefly: Induction of apoptosis in human PC3 cells at 15 uM after 24 hrs using propidium iodide staining by flow cytometry (reference value: 1.27 %). The format is functional.
The test system of test [13] is PC-3. Briefly: Cell cycle arrest in human PC3 cells assessed as accumulation at G2 phase at 15 uM after 48 hrs using propidium iodide staining by flow cytometry (reference value: 13.36 %). The format is functional.
Test [14] has as its system PC-3. Briefly: Cell cycle arrest in human PC3 cells assessed as accumulation at S phase at 15 uM after 48 hrs using propidium iodide staining by flow cytometry (reference value: 38.16 %). The format is functional.
In test [15] the test system is PC-3. Briefly: Induction of apoptosis in human PC3 cells at 15 uM after 48 hrs using propidium iodide staining by flow cytometry (reference value: 0.84 %). The format is functional.

The structures appear in SMILES notation. The source made the active and inactive calls. No cut-off for these calls is given here.

Sequence of D(2) dopamine receptor (P61169 whole entry): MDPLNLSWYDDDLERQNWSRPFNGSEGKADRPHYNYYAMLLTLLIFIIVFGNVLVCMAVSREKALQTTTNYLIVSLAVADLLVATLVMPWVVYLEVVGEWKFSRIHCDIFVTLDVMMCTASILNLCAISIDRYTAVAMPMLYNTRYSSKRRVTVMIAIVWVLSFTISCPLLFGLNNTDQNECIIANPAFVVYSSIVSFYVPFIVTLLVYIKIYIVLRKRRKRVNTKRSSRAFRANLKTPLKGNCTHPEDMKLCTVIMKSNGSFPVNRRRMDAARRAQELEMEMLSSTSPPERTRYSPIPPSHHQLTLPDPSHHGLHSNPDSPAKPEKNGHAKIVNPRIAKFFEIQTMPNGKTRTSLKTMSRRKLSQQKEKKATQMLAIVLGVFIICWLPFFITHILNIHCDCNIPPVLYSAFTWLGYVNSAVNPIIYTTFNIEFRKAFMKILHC

As to `O=C1C2C3C=CC(C3)C2C(=O)N1OCCN1CCN(c2cccc3ccccc23)CC1` (configuration not stated), the inhibition constant (Ki) (usually the dissociation constant of the complex between target and ligand, obtained from inhibition or displacement) in [1] was 1.2 µM; at D(1A) dopamine receptor it was over 10 µM; at D(2) dopamine receptor, over 10 µM; in test [2], 0.113 µM; in test [3], “Not Active”. Also, in the test on PC-3 [4], the IC50 (as a rule, the concentration needed to halve the response being measured) was 47.7 µM.

`N#C/N=C(\NCCCN1CCN(c2cccc3ccccc23)CC1)c1ccccn1`: the inhibition constant (Ki) is over 10 µM in [1]; over 10 µM at D(1A) dopamine receptor; over 10 µM at D(2) dopamine receptor; 0.224 µM in test [2]; “Not Active” in test [3]. Also, the concentration for half-maximal inhibition (IC50) in the test on PC-3 [4] was 23.8 µM.

Turning to `O=c1c2ccccc2nnn1OCCN1CCN(c2cccc3ccccc23)CC1`, the Ki is over 10 µM in test [1]; over 10 µM at D(1A) dopamine receptor; over 10 µM at D(2) dopamine receptor; 1.32 µM in test [2]; “Not Active” in test [3]. Also, the “growth inhibition (GI)” value in the test with PC-3 [4] is “inactive”.

`O=c1c2ccccc2nnn1OCCCN1CCN(c2cccc3ccccc23)CC1`: the inhibitory constant (Ki) in test [1] was over 10 µM; on D(1A) dopamine receptor, over 10 µM; on D(2) dopamine receptor, 0.0854 µM; in test [2], 0.721 µM; in test [3], “Not Active”. Moreover, in the test on PC-3 [4], the 50% inhibitory concentration (IC50) was found to be 12.3 µM.

`O=c1c2ccccc2nnn1CCCN1CCN(c2cccc3ccccc23)CC1`: the Ki in test [1] is 3.6 µM; on D(1A) dopamine receptor it was over 10 µM; on D(2) dopamine receptor, over 10 µM; in test [2], 0.127 µM; in [3] (read-out: Ki), over 10 µM. Further, the Activity in the test with PC-3 [5] was found to be 43.11%; in the test with PC-3 [6], 28.65%; in the test on PC-3 [7], 2.25%; with PC-3 [9] it was 37.55%; in the test with PC-3 [10], 27.3%; with PC-3 [11] it was 35.15%. The Activity with PC-3 [12] stood at 1.71%; in the test with PC-3 [13], 22.29%; in the test with PC-3 [14] it was 33.58%; in the test with PC-3 [15], 2.12%. In the test on PC-3 [8], the outcome was Active. The “growth inhibition (GI)” value in the test on PC-3 [4] was “Dose-dependent effect”. Besides, the 50% inhibitory concentration (IC50) in the test on PC-3 [4] is 10.5 µM.

On to `O=c1c2ccccc2nnn1CCN1CCN(c2cccc3ccccc23)CC1`, for which the Ki is 1.88 µM in test [1]; over 10 µM at D(1A) dopamine receptor; over 10 µM at D(2) dopamine receptor; 0.00529 µM in test [2]; over 10 µM in test [3] (read-out: Ki). In addition, the Activity amounted to 45.86% in the test with PC-3 [5]; 24.19% in the test with PC-3 [6]; 2.17% in the test with PC-3 [7]; 38.38% with PC-3 [9]; 24.17% in the test on PC-3 [10]; 37.45% in the test with PC-3 [11]. The Activity in the test on PC-3 [12] worked out at 2.17%; with PC-3 [13] it was 24.08%; in the test on PC-3 [14], 34.56%; with PC-3 [15] it was 2.79%. Moreover, in the test with PC-3 [8], the outcome was Active. Further, the “growth inhibition (GI)” value in the test on PC-3 [4] was “Dose-dependent effect”. For the same compound, the IC50 in the test on PC-3 [4] amounted to 10.6 µM.

Take `O=C1C2C3C=CC(C3)C2C(=O)N1OCCCN1CCN(c2cccc3ccccc23)CC1` (configuration not stated): the Ki in test [1] was 0.189 µM; at D(1A) dopamine receptor, over 10 µM; on D(2) dopamine receptor, 0.263 µM; in test [2], 0.0918 µM; in [3] it was “Not Active”. In the test with PC-3 [4], the “growth inhibition (GI)” value is “Dose-dependent effect”. Also, the IC50 in the test on PC-3 [4] is 13 µM.
